Results as given in publication PMC5702387, “The Antifungal Plant Defensin HsAFP1 Is a Phosphatidic Acid-Interacting Peptide Inducing Membrane Permeabilization” (Frontiers in Microbiology, 2017).

Key:
Format in all cases: binding
HsAFP1 [1] = molecular target: T1, HsAFP1 (Heuchera sanguinea, UniProt P0C8Y5); test: DSC of lipid vesicles (lipid phase transition); conditions: PC/PG/PA 75/15/10 vesicles, 0.5 mM; 40 uM HsAFP1; HEPES pH 7, low salt
T1 construct: mature plant defensin, recombinantly produced in Pichia pastoris and purified
T1 sequence (P0C8Y5 whole entry): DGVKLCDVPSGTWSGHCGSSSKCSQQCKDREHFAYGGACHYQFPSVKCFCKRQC

HsAFP1 [2] = molecular target: T1, HsAFP1; test: rELISA, immobilised lipid; conditions: 12.5 uM HsAFP1; pH 7.4; 37 C
HsAFP1 [3] = molecular target: T2, HsAFP1 (Heuchera sanguinea, UniProt P0C8Y5, H32A/R52A); test: rELISA, immobilised lipid; conditions: 12.5 uM peptide; PBS-based blocking buffer pH 7.4; 37 C
T2 construct: mature plant defensin, recombinantly produced in Pichia pastoris and purified
T2 sequence (P0C8Y5 whole entry H32A/R52A): as the sequence (P0C8Y5 whole entry) above, with H32A, R52A counted along it

CCCCCCCCCCCCCC(=O)OC[C@H](COP(=O)(O)O)OC(=O)CCCCCCCCCCCCC [dimyristoylphosphatidic acid]
DSC of lipid vesicles (lipid phase transition) (HsAFP1 [1]): HsAFP1 specifically interacted with vesicles containing PA

methyl-PA
% reduction of binding vs PA (HsAFP1 [2]): > 75%

phosphatidic acid
% reduction of binding vs native HsAFP1 (HsAFP1 [3]): 77%
